Reference: patent US20240117005A1, “NOVEL BICYCLIC PEPTIDES” (THE COUNCIL OF THE QUEENSLAND INSTITUTE OF MEDICAL RESEARCH, priority 2021, published 2024)
Entries after “also recorded” stand apart in the source; their conditions may differ.

Key:
MDA-MB-231 cells = assay: WST-1 cell proliferation assay, MDA-MB-231; assay type: cell-based, human; details: for inhibition of proliferation: MDA-MB-231, WST-1, 72 hours
Procedure: MDA-MB-231 cells were seeded at 4×10^3 cells/well into a 96-well flat bottom tissue culture plate in a final volume of 100 ul and left to adhere for 24 hours at 37° C. and 5% CO2. Cells were then treated with inhibitors for 72 hours at a final concentration of 200, 100, 50, 25, 12.5 or 6.25 μM. Following inhibition, media was removed and replaced with 100 μL/well of WST-1 cell proliferation reagent (Sigma-Aldrich, Cat# 11644807001) at 1:10 final dilution. Absorbance was recorded at 450 nm at 1, 2, 3, and 4 hour incubation periods using a microplate spectrophotometer (with 30 sec mix time). Data represent a single independent experiment performed in triplicate, results are graphed as mean +/− standard error (SE).
(A) CT26, 4T1 or MDA-MB-231 Cells were treated with inhibitors for 72 hours. Following inhibition, media was removed and replaced with WST-1 cell proliferation reagent. Absorbance was recorded at 450 nm after 1 hour. Data represent a single independent experiment performed in triplicate. Results are graphed as mean +/− standard error (SE). B) MDA-MB-231 or CT26 cancer cells were treated with vehicle control, DL-2-Batch 1 (original stock), DL-2-Batch 2 (current stock), DL-2-TBAB or linear PDL1. Cells were permeabilised and were probed with the DUOLINK ligation assay. Cover slips were mounted on glass microscope slides with ProLong nucblue glass Antifade reagent (Life Technologies). PDL1Ac and IMPα1 DUOLINK Digital images were analysed using ImageJ software (ImageJ, NIH, Bethesda, MD, USA) and graphs represent the mean DOT Fluorescent Intensity in the nucleus or the cytoplasm compartments with significant differences calculated as per one-way ANOVA comparison. (C) MDA-MB-231 or CT26 cancer cells were treated with vehicle control, DL-2-Batch 1 (Original stock), DL-2-Batch 2 (current stock), DL-2-TBAB or linear PDL1. Cells were permeabilised and were probed with the DUOLINK ligation assay. Cover slips were mounted on glass microscope slides with ProLong nucblue glass Antifade reagent (Life Technologies). PDL1-unmodified and IMPα1 DUOLINK digital images were analysed using ImageJ software (ImageJ, NIH, Bethesda, MD, USA) and graphs represent the mean DOT fluorescent intensity in the nucleus or the cytoplasm compartments with significant differences calculated as per one-way ANOVA comparison.
4T1, CT26 or MDA-MB-231 cancer cell lines were treated with DL-2 or DL-2-D bicyclic inhibitors for 72 hours. Following inhibition, media was removed and replaced with WST-1 cell proliferation reagent. Absorbance was recorded at 450 nm after 1 hour. Data represent a single independent experiment performed in triplicate; results are graphed as mean +/− standard error (SE).
Cells weretreated with inhibitors for 48 hours. Following inhibition, media was removed and replaced with WST-1 cell proliferation reagent. Absorbance was recorded at 450 nm after 1 hour.

PDL1-PTM1 and IMPα1 = target: T1, PDL1-PTM1 and IMPα1 (Homo sapiens, UniProt P52292); assay: Importin-α pathway screening assay (PCC co-localisation); assay type: cell-based
T1 construct: endogenous in cells; host or cells: MDA-MB-231
Procedure: MDA-MB-231 cells were treated with DL-2 for 4 to 96 hours or control peptide scramble and were permeabilized probed a mouse anti-IMPα1, rabbit anti-PDL1 and visualized with a donkey anti-rabbit secondary antibody conjugated to Alexa Fluor 647 or a donkey anti-mouse secondary antibody conjugated to Alexa Fluor 568. Cover slips were mounted on glass microscope slides with Prolong nucleus glass Antifade reagent (Life Technologies). PDL1 and IMPα1 digital images were analyzed using ImageJ software (ImageJ, NIH, Bethesda, MD, USA) to determine the mean fluorescent intensity (mean FI). Graphs represent the mean FI of IMPα1. Graphs also depict the PCC of PDL1/IMPα1 using ImageJ software with automatic thresholding and manual selection of regions of interest (ROIs) specific for cell nuclei to calculate the Pearson's co-efficient correlation (PCC) for each pair of antibodies. PCC values range from: −1=inverse of co-localization.

CCCCCCCCCCCCCC(=O)NC(C)C(=O)NC1CSCc2cc3cc(c2)CSC[C@H](NC(=O)[C@H](Cc2ccccc2)NC(=O)[C@H](C(C)CC)NC(=O)[C@H](Cc2ccccc2)NC(=O)[C@H]([C@@H](C)O)NC(=O)C(CC(C)C)NC1=O)C(=O)N[C@@H](CCCNC(C)=N)C(=O)N[C@@H](CC(C)C)C(=O)N[C@@H](CCCNC(=N)N)C(=O)N[C@@H](CCCCN)C(=O)NCC(=O)N[C@@H](CCCNC(=N)N)C(=O)NC(C(=O)N[C@@H](CCSC)C(=O)NC(CCSC)C(=O)N[C@@H](CC(=O)O)C(=O)NC(C(=O)N[C@@H](CCCCN)C(=O)NC(CCCCN)C(=O)O)C(C)C)CSC3 (mixture of isomers) [DL-2]
inhibition of proliferation (MDA-MB-231 cells): able to inhibit proliferation; also recorded: significantly inhibit the proliferation
inhibition of proliferation (MDA-MB-231 cells; listed as DL-2-TBMB): able to effectively inhibit the proliferation
potency of proliferation inhibition relative to DL-1 (MDA-MB-231 cells; MDA-MB-231, higher potency than DL-1): 2-3 fold
nuclear expression of IMPα1 (PDL1-PTM1 and IMPα1; MDA-MB-231): No significant effect
PCC or degree of co-localization of PDL1-PTM1 and IMPα1 (PDL1-PTM1 and IMPα1; MDA-MB-231, up to 96 hours): significantly impair
